Assay results from US6462038B1, “Androgen receptor modulator compounds and methods” (Ligand Pharmaceuticals, Inc., priority 1999, dated 2002).

Tested on: immature castrated male rat
Assay: immature castrated male rat model: ventral prostate, seminal vesicle and levator ani growth
Type: in vivo
Conditions: oral; for LA (wet wt) / LA eff (% intact) / SV (wet wt) / SV eff (% intact) / VP (wet wt) / VP eff (% of intact): Table 4, castrated immature rats, once daily, 3 days
Text: The activity of selected compounds of the present invention as AR agonists was investigated in an immature castrated male rat model, a recognized test of the androgen of a given compound, as described in L. G. Hershberger et al., “Myotrophic Activity of 19-Nortestosterone and Other Steroids Determined by Modified Levator Ani Muscle Method” 83 Proc. Soc. Exptl.
The basis of this assay is the fact that the male sexual accessory organs, such as the prostate and seminal vesicles, play an important role in reproductive function. […] F. Labrie et al. 16 Clin. Invest. […] However, this is not a major pathway, since in both animals and humans, castration leads to almost complete involution of the prostate and seminal vesicles without concomitant adrenalectomy. […] Since the male sex organs are the tissues most responsive to modulation of androgen activity, this model is used to determine the androgen-dependent growth of the sex accessory organs in immature castrated rats. […] Male immature rats ([…], 21-day-old, Sprague-Dawley, Harlan) were castrated under metofane anesthesia. Immediately after surgery, animals groups were dosed for 3 days as follows:
At the end of the 3-day treatment, the animals were sacrificed, and the ventral prostates (VP), seminal vesicles (SV), and levator ani (LA) were collected and weighed. The sexual organ weights were first standardized as mg per 100 g of body weight, and the increase in organ weight induced by the compounds of the present invention was compared to the castrate control animals. […] Super-anova (one factor) was used for statistical analysis.
The gain and loss of sexual organ weights reflect the changes of cell number (DNA content) and cell mass (protein content), depending upon the serum androgen concentration. […] Therefore, measurement of organ wet weights is sufficient to indicate the bioactivity of androgens and androgen antagonists.

In the case of `O=c1cc(C(F)(F)F)c2cc3c(cc2[nH]1)OCCN3CC(F)(F)F` [Compound 105, 1,2,3,6-Tetrahydro-1-(2,2,2-trifluoroethyl)-9-(trifluoromethyl)-7H-[1,4]oxazino[3,2-g]quinolin-7-one], the “LA (wet wt)” value (3 mg/kg) is reported as 33.0 ± 2.4 mg/100 g body weight, the “LA eff (% intact)” value (3 mg/kg) is reported as 306 ± 140% and the “SV (wet wt)” value (3 mg/kg) is reported as 8.5 ± 0.7 mg/100 g body weight. For the same compound, the “SV eff (% intact)” value (3 mg/kg) was 15 ± 13%, the “VP (wet wt)” value (3 mg/kg) was 26.9 ± 1.1 mg/100 g body weight and the “VP eff (% of intact)” value (3 mg/kg) was 12 ± 5%. For the same compound, the “LA (wet wt)” value (10 mg/kg) was 36.3 ± 1.3 mg/100 g body weight, the “LA eff (% intact)” value (10 mg/kg) was 498 ± 73% and the “SV (wet wt)” value (10 mg/kg) was 9.9 ± 0.4 mg/100 g body weight. For the same compound, the “SV eff (% intact)” value (10 mg/kg) was 42 ± 8.2%, the “VP (wet wt)” value (10 mg/kg) was 35.9 ± 2.7 mg/100 g body weight and the “VP eff (% of intact)” value (10 mg/kg) was 52 ± 12%. The “LA (wet wt)” value (30 mg/kg) was 35.8 ± 1.2 mg/100 g body weight, the “LA eff (% intact)” value (30 mg/kg) was 469 ± 71% and the “SV (wet wt)” value (30 mg/kg) was 11.7 ± 1.4 mg/100 g body weight. For the same compound, the “SV eff (% intact)” value (30 mg/kg) was 78 ± 26%, the “VP (wet wt)” value (30 mg/kg) was 30.1 ± 2.1 mg/100 g body weight and the “VP eff (% of intact)” value (30 mg/kg) was 26 ± 9%. The “LA (wet wt)” value (100 mg/kg) was 39.7 ± 0.6 mg/100 g body weight, the “LA eff (% intact)” value (100 mg/kg) was 696 ± 36% and the “SV (wet wt)” value (100 mg/kg) was 14.4 ± 1.0 mg/100 g body weight. The “SV eff (% intact)” value (100 mg/kg) was 131 ± 19%, the “VP (wet wt)” value (100 mg/kg) was 42.1 ± 1.6 mg/100 g body weight and the “VP eff (% of intact)” value (100 mg/kg) was 80 ± 7%. The “AR agonist activity: weights of the VP, SV and LA” value (immature castrated rat, statement in words) was “exhibited AR agonist activity”.
